Assay: Human HepG2 cell viability assay in 384 well format
Format: toxicity, cell-based
Parameters: dose 125 nL, time 70.5 hour; cytotoxicity at 70.5 h: concentration not given beside the values
Conditions: HepG2 cells, read-out: Inhibition

| SMILES | cytotoxicity at 70.5 h [%] |
| --- | --- |
| Cc1nc(C)n(CC2CCCCN2CCCS(=O)(=O)N(C)C)n1 (stereo not given) | 3.2 |
| CCN1CCc2[nH]cnc2C12CCN(C(=O)CCCn1cncn1)CC2 | -1.47 |
| O=C(O)C1(O)CCN(c2ccc3cccc(Cl)c3n2)CC1 | -20.3 |
| CC(C)c1nc2c(n1C)CCN(CC(=O)Nc1nncs1)C2 | 6.98 |
| O=C(C1CCOCC1)N1CCN2C(=O)N(Cc3ccc(F)cc3)C[C@H]2C1 | -3.96 |
| COCCN(Cc1ccncc1)C(=O)C1COc2c(cccc2OC)C1 (stereo not given) | 0.81 |
| NC(=O)c1cccc(CCNCc2cnc(-c3cccs3)s2)c1 | -12.1 |
| Cc1nc(C)n(CC2CCCCN2Cc2cscn2)n1 (stereo not given) | -5.99 |
| Cc1ncc(C(=O)N2CCCC(Cc3nccs3)C2)cn1 (stereo not given) | -8.16 |
| CCS(=O)(=O)N1Cc2c(Cn3cccc3)nn(C(C)C)c2C1 | -2.77 |
| Cc1ccsc1C(=O)Nc1cnn(CC(=O)NC2CCCC2)c1 | 23.1 |
| Fc1ccccc1C1NCCc2cc3c(cc21)OCCO3 (stereo not given) | 0.151 |
| Cc1nonc1CN(C)Cc1cnn(-c2ccc(Cl)cc2)c1 | -3.48 |
| CCCC(=O)N1CCC(c2ncc3c(n2)CCNC3)CC1 | -5.64 |
| Cn1cnc2c(N3CCCC3)nc(C3CCN(CC4CC4)CC3)cc21 | -0.352 |
| O=C1NCC2(CCCN(C(=O)c3csc(-c4cccs4)n3)C2)O1 (stereo not given) | -14.3 |
| CN1C(=O)C(c2ccccc2)CC12CCN(CCOCCO)CC2 (stereo not given) | 3.55 |
| O=C(NCc1ccncc1)N1CCSCC1CCO (stereo not given) | 10.5 |
| CCC[C@@H]1CN(S(=O)(=O)c2ccc(C)c(F)c2)C[C@H]1N(C)C | 0.773 |
| Cc1nn(C)c(N(C)C)c1CNCc1cccc(Cl)c1 | 0.245 |
| Cc1nn(C)c(Cl)c1CNCc1cccnc1N1CCOCC1 | 0.768 |
| CC(=O)NCCNC(=O)CN1CCCC(Cn2cncn2)C1 (stereo not given) | -4.84 |
| O=C(CCn1cncn1)N1CCCC(CO)(CCCc2ccccc2)C1 (stereo not given) | 15.8 |

| SMILES | cytotoxicity at 70.5 h [%] |
| --- | --- |
| COCCNc1ccc(CNC(=O)C2COc3ccccc32)cc1 (stereo not given) | 19.2 |
| Cc1n[nH]c(=O)c2c(NC(=O)CN3CCOCC3)oc(C)c12 | -8.38 |
| Cc1nonc1CN1CC[C@@](O)(C2CCOCC2)[C@H](C)C1 | -11 |
| O=S(=O)(NCc1ccccc1)Nc1cccc(Cn2cncn2)c1 | -7.79 |
| CCC(C)(CC(=O)OC)NC(=O)c1ccc(C(C)=O)cc1 (stereo not given) | 23.7 |
| CC(O)CN1CCN(C(=O)c2ccc(CN(C)C)cc2)CC1 (stereo not given) | -0.592 |
| O=C1NCCCCC1NC(=O)C1(Oc2ccc(Cl)cc2)CCNCC1 (stereo not given) | -7.72 |
| O=S(=O)(CCN1CCOC(Cn2cccn2)C1)c1ccccc1 (stereo not given) | -7.12 |
| CC(C)NC(=O)N1CCCCCC1C1CCN(c2ncccn2)CC1 (stereo not given) | 19.7 |
| Cc1ccc2c(c1)C1(CCN(C(N)=O)CC1)CN2C(=O)N(C)C | -7.46 |
| c1cnn(CCC2CCCCN2Cc2cnc(C3CCCCC3)nc2)c1 (stereo not given) | -8.97 |
| O=C(CCc1ccccc1)C1CCCN(C(=O)c2cncc(Cl)c2)C1 (stereo not given) | -25.5 |
| O=C(Nc1cccc(CNCc2ccccn2)c1)C1CCCC1 | -4.03 |
| Cc1ccnc(N2CCCC(c3nccn3C(C)C)C2)n1 (stereo not given) | 1.49 |
| O=C(O)c1cccnc1CN1CCCC1CCc1ccccc1 (stereo not given) | -14.9 |
| CNS(=O)(=O)c1cccc(C(C)NCc2ccc(C)c(C)c2)c1 (stereo not given) | 19.3 |
| Cc1ccc(C)c2c(C)c(C(=O)NCCCn3cnnc3)[nH]c12 | -6.86 |
| O=C(NCCSCc1ccc(Br)s1)C1CCCN(C(=O)c2cccs2)C1 (stereo not given) | -8.75 |
| COCCN1CCCN(C(=O)c2oc(C)nc2C)CC1 | -7.73 |
| Cc1nnc2n1CCN(C(=O)C(C)Oc1ccc(C#N)cc1)C2 (stereo not given) | -12.4 |
| CCN1CCC2(C1)CN(S(=O)(=O)c1cn(C)cn1)C2 | -5.09 |
| Cc1ccc(Cn2ccc(NS(C)(=O)=O)n2)cc1 | -10.8 |
| Cc1ccccc1CC(=O)N1C[C@@H]2COC[C@]2(CN(C)C)C1 | -6.68 |

| SMILES | cytotoxicity at 70.5 h [%] |
| --- | --- |
| Cc1nc(C2CCCN2CCCn2c(=O)oc3ccccc32)no1 (stereo not given) | 19.1 |
| O=C1CCN(Cc2cnc3c(-c4ccccc4)cnn3c2)CCN1 | -9.5 |
| CO[C@@H]1CN(Cc2scnc2C)[C@@H]2CCCO[C@@H]21 | -4.62 |
| CC(C)CCC(=O)N1CCN(C(=O)c2ccc(-n3cccn3)cc2)CC1 | -3.97 |
| Cc1cccc(C(C(=O)N2CC(Oc3ccccc3F)C2)N(C)C)c1 (stereo not given) | -1.02 |
| c1cncc(C2COC3(CCN(Cc4cccs4)CC3)C2)c1 (stereo not given) | -6.54 |
| CC(O)CN(Cc1cccc(C(N)=O)c1)c1ccccc1 (stereo not given) | -7.27 |
| COc1ccc2c(c1)CN(CC(=O)NC1CCCC1)CC2 | -12.6 |
| COCC1CC2(CCN(Cc3nccn3C)CC2)CN1c1ncccn1 (stereo not given) | -0.457 |
| N#Cc1cccc(N2CCC(c3nccn3Cc3cscn3)CC2)n1 | -2.31 |
| CCOc1cccc2c1OCC(=O)N(c1ccc(N(C)C)cc1)C2 | -8.85 |
| O=C(NCc1ccco1)N1CCCCC1c1nc(C2CC2)no1 (stereo not given) | -7.19 |
| O=C(CNC(=O)C1CC1)NCC(F)(F)F | 1.27 |
| CN(Cc1cccnc1)C(CO)c1cccc(Br)c1 (stereo not given) | -7.61 |
| Cc1cc(C)n(CC2CN(CC(=O)Nc3nncs3)CCO2)n1 (stereo not given) | 0.137 |
| Cn1nc(Cn2ccnc2)c2c1CN(c1nccs1)C2 | -5.95 |
| Cc1cc(C(=O)N2CCN(c3nc4c(C(C)C)cccc4s3)CC2)on1 | 32 |
| CCOCCCn1c(NC(=O)c2scnc2C)nc2ccccc21 | 30.8 |
| O=C(c1ccc(=O)[nH]n1)N1CCCC1CCc1ccccc1 (stereo not given) | -11.9 |
| CC(C)[C@@H]1CN(c2ncc(F)cn2)C[C@H]1NS(=O)(=O)N(C)C | 15.6 |
| CCc1cnc(CN(C(C)=O)C2CCN(CCc3ccccc3)C2)o1 (stereo not given) | 18.3 |
| COc1c(CNCCNC(=O)c2ccco2)c(C)nn1C | -10.7 |
| Cc1c(C2CC(=O)Nc3c2cnn3C(C)C)cnn1C (stereo not given) | -10.4 |

| SMILES | cytotoxicity at 70.5 h [%] |
| --- | --- |
| Cc1n[nH]c(C)c1CCC(=O)N1CCc2c(nc[nH]c2=O)C1 | -22.4 |
| COc1ccc(C(=O)NCC2CCCN(C3CCOCC3)C2)c(O)c1 (stereo not given) | 23.3 |
| COc1ccc(CN2CC[C@H]3[C@H]2CC(=O)N3Cc2cccc(C)n2)cc1 | -7.27 |
| O=C(NCc1ccccc1CN1CCOCC1)Nc1nncs1 | 11 |
| CC(C)(C)n1nnnc1CN(CCc1ccccc1)Cc1ccccc1 | 1.44 |
| Cc1n[nH]cc1CNC1(Cc2ccc(Br)cc2)CCCCC1 | -1.97 |
| Cn1c(C2CC2)nc2c1CCN(CC(=O)Nc1nccs1)C2 | -6.18 |
| O=C(CCN1CCCC1c1cccc2c1OCCO2)N1CCCCC1 (stereo not given) | -6.86 |
| CN(C)Cc1cnc2n1CCN(C(=O)Cc1cccc(F)c1)CC2 | 4.88 |
| CC(=O)N1N=C(c2ccco2)OC1C(=O)NCC(C)C (stereo not given) | -4.23 |
| CNC(=O)NC(=O)CCSc1ccccc1C | -0.594 |
| O=C(c1ccoc1)N1CCOCC2(CCN(C3CCOCC3)C2)C1 (stereo not given) | -2.14 |
| COCC(=O)N(Cc1cccnc1)CC1CCN(C2CCCC2)CC1 | 1.31 |
| Cn1ncc2c(N3CCCN(C(=O)c4ccsc4)CC3)ncnc21 | -1.19 |
| CCN(C)C(=O)c1cccc(S(=O)(=O)NCCc2nc(C)cc(=O)[nH]2)c1 | -22.4 |
| CCC(CC)C(=O)N1CCC2(C1)CN(c1ccccc1)C(=O)CN2C (stereo not given) | -20.2 |
| O=C1N[C@@H]2CCN(C(=O)c3ccccc3)[C@@H]2C(=O)N1Cc1ccccc1 | -5.37 |
| CN(C)c1nccc(NCc2cc(-c3ccco3)n[nH]2)n1 | -3.1 |
| Cc1nc(C)n(CC2CCCN(CC(=O)NC3CCOCC3)C2)n1 (stereo not given) | 3.14 |
| COc1cccc2c1OCCCN(c1nc(N)nc3c1CCNC3)C2 | 12.6 |
| Cc1ccccc1CC(=O)N1CCOCC1c1c(C)n[nH]c1C (stereo not given) | -6.23 |
| CNC(=O)C(C)(C)N(C)C(=O)c1cc(COc2ccccc2OC)[nH]n1 | -5.11 |
| CN(Cc1nnc2n1CCC2)C(=O)Cc1ccc2c(c1)CCC2 | -6.67 |

| SMILES | cytotoxicity at 70.5 h [%] |
| --- | --- |
| COc1nc2c(cc1C(=O)NCc1nc(CSC)no1)CCC2 | -5.89 |
| CCC(CNC(=O)Nc1cnn(CC)c1)N1CCc2ccccc2C1 (stereo not given) | -4.26 |
| COc1ccc(-c2noc(C3CCS(=O)(=O)C3)n2)cc1OC (stereo not given) | -10.7 |
| CCn1nnnc1-c1cccc(NC(=O)CCOC(C)C)c1 | -7.16 |
| CC(Cn1ccnc1)NS(=O)(=O)c1ccc(F)c(Cl)c1 (stereo not given) | -1.84 |
| COc1cc(-c2cc(OC)c(OC)c(OC)c2)ncn1 | -6.68 |
| Cc1ccc(NC(=O)C2CSCN2C(=O)c2ccncc2)c(C)c1 (stereo not given) | -4.2 |
| O=C(NC1CCCCC1)c1c(F)cccc1F | 4.08 |
| COCc1nc(NC(C)c2c(C)n[nH]c2C)c2cnn(C)c2n1 (stereo not given) | -5.38 |
| O=C(c1cc2c(Cl)cccc2[nH]1)N1CCN(CCc2ccccn2)CC1 | 24.6 |
| CCc1cn[nH]c1C1CCN(c2cc(C)c3ccc(OC)cc3n2)CC1 | 9.99 |
| Cc1nc(Nc2ccccn2)cc(C2CCCN2Cc2ncc[nH]2)n1 (stereo not given) | -6.09 |
| CCc1c(C)[nH]c(C2(N)CCCCC2)nc1=O | 0.763 |
| CCNC(=O)N1CCC(NC(=O)NCCc2cccc(C)c2)C1 (stereo not given) | 4.49 |
| O=C(CCn1c(C(F)(F)F)cc2cccnc21)N1CCC(O)CC1 | 2.54 |
| CC(C(=O)NCc1ccc(-n2cncn2)nc1)S(C)(=O)=O (stereo not given) | 0.438 |
| COc1ccc(C(C)NCc2cnnn2C)cc1F (stereo not given) | 2.17 |
| O=c1[nH]c(CCN2CCN(CC(F)(F)F)CC2)nc2ccccc12 | -4.17 |
| CC(C)c1nccn1C1CCCN(C(=O)c2ccc(=O)n(C)n2)C1 (stereo not given) | -8.03 |
| CCCNC(=O)c1nn(CC)cc1NC(=O)c1c(C)nn(C)c1C | -11.3 |
| Cc1nnc2n1CCN(Cc1ncc(-c3ccc(F)cc3)o1)C2 | -1.84 |
| CCCc1n[nH]c(C2CN(Cc3nnc(C4CC4)o3)CCO2)n1 (stereo not given) | 8.7 |
| Cc1cccc(CN2CC[C@@H]3O[C@@H](C(=O)N4CCN(C)CC4)C[C@@H]32)n1 | -1.64 |
